Key:
mTOR/GbL/Raptor (mTORC1) = mTOR/GbL/Raptor (mTORC1) (Homo sapiens, UniProt P42345); test: mTOR/GbL/Raptor (mTORC1) ELISA assay; assay type: biochemical; conditions: phosphorylation of 4E-BP1; 0.2 nM mTORC1, 10 μM ATP, 50 nM NHis-tagged 4E-BP1
Description: mTOR/GbL/Raptor (mTORC1) ELISA Assay
The measurement of mTORC1 enzyme activity was performed in an ELISA assay format following the phosphorylation of 4E-BP1 protein. All experiments were performed in the 384-well format. Generally, 0.5 μL DMSO containing varying concentrations of the test compound was mixed with 15 μL enzyme solution. Kinase reactions were initiated with the addition of 15 μL of substrates-containing solution. The assay conditions were as follows; 0.2 nM mTORC1, 10 μM ATP and 50 nM NHis-tagged 4E-BP1 in 20 mM Hepes, pH 7.2, 1 mM DTT, 50 mM NaCl, 10 mM MnCl2, 0.02 mg/mL BSA, 0.01% CHAPS, 50 mM β-glycerophosphate. Following an incubation of 120 minutes at ambient temperature, 20 μL of the reaction volume was transferred to a Ni-Chelate-coated 384-well plate. The binding step of the 4E-BP1 protein proceeded for 60 minutes, followed by washing 4 times each with 50 μL of Tris-buffered saline solution (TBS). Anti-phospho-4E-BP1 rabbit-IgG (20 μL, 1:5000) in 5% BSA-TBST (0.2% Tween-20 in TBS) was added and further incubated for 60 minutes. Incubation with a secondary HRP-tagged anti-IgG was similarly performed after washing off the primary antibody (4 washes of 50 μL). Following the final wash step with TBST, 20 μL of SuperSignal ELISA Femto (Pierce Biotechnology) was added and the luminescence measured using an EnVision plate reader.

PI3Kα = PI3Kα (Homo sapiens, UniProt P42336); test: PI3K biochemical assay (PI3K-alpha, luciferase-luciferin ATP consumption); conditions: 3 nM enzyme, 1 μM ATP, 10 μM PIP2; percent of ATP consumed
Description: PI3Kα activity was measured as the percent of ATP consumed following the kinase reaction using luciferase-luciferin-coupled chemiluminescence. Reactions were conducted in 384-well white, medium binding microtiter plates (Greiner). Kinase reactions were initiated by combining test compounds, ATP, substrate (PIP2), and kinase in a 20 μL volume in a buffer solution. The standard PI3Kalpha assay buffer was composed 50 mM Tris, pH 7.5, 1 mM EGTA, 10 mM MgCl2, 1 mM DTT and 0.03% CHAPS. The standard assay concentrations for enzyme, ATP, and substrate were 3 nM, 1 μM, and 10 μM, respectively. The reaction mixture was incubated at ambient temperature for approximately 2 h. Following the kinase reaction, a 10 μL aliquot of luciferase-luciferin mix (Promega Kinase-Glo) was added and the chemiluminescence signal measured using a Victor2 or EnVision (Perkin Elmer). Total ATP consumption was limited to 40-60% and IC50 values of control compounds correlate well with literature references. Substituting PI3Kα with PI3Kβ, PI3Kγ, or […], the inhibitory activity of the compounds for the other isoforms of PI3K were measured. For the PI3Kβ and PI3Kδ assays, enzyme concentrations were 10 nM and 4 nM, respectively. For the PI3Kγ assay, enzyme concentration was 40 nM, the incubation time was 1 h, and the concentration of MgCl2 in the assay buffer was 5 mM.

Sequence of PI3Kα (P42336 whole entry): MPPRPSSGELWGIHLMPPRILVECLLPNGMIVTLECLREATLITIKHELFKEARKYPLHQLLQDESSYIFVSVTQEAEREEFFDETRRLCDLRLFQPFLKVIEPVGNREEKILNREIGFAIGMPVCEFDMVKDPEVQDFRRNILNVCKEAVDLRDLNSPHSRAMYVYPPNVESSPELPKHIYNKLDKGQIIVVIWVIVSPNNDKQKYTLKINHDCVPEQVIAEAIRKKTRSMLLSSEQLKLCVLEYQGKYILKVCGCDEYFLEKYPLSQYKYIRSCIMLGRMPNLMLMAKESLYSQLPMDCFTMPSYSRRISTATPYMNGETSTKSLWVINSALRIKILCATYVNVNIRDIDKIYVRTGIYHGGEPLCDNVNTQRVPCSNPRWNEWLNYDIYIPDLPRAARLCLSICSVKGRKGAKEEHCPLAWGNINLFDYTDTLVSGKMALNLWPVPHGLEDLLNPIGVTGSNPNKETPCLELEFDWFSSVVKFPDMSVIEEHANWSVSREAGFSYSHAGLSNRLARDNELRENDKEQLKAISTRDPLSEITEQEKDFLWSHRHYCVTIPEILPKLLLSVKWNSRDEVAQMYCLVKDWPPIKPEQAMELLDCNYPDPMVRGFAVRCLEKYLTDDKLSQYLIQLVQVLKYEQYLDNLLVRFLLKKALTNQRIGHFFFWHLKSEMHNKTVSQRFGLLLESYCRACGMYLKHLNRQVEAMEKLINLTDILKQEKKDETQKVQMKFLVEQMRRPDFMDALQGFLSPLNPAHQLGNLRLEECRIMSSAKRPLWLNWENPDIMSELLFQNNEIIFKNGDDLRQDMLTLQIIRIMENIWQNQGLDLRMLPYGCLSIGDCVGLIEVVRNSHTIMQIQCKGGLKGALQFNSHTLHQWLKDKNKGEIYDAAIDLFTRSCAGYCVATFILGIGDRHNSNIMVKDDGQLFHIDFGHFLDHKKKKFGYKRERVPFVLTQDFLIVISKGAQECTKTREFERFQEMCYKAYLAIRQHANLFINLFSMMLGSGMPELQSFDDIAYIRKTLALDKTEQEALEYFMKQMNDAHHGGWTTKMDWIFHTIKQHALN
Sequence of PI3Kα (P27986 whole entry partner): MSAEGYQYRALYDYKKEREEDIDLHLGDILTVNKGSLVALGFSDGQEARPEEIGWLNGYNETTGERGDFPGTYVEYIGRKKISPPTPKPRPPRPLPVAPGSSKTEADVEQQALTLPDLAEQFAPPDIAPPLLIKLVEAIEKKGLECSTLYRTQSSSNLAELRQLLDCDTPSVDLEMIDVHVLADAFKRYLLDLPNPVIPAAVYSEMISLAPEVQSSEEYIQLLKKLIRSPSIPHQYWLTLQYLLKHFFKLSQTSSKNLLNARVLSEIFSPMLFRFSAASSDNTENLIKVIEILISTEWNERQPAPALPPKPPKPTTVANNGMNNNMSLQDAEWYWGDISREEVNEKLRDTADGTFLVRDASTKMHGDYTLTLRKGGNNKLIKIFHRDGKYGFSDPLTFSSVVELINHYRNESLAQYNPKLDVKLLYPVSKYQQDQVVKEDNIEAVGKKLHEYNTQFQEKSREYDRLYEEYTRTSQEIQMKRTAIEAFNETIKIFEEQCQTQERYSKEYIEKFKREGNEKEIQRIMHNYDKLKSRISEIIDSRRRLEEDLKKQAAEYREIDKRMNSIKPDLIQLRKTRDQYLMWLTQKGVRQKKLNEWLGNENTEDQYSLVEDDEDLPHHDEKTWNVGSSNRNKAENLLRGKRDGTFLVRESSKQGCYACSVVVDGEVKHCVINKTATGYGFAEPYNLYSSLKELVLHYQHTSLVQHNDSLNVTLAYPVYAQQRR

| IC50 (mTOR/GbL/Raptor (mTORC1)) | IC50 (PI3Kα) | Structure (SMILES) |
| --- | --- | --- |
| 100 to 500 nM | 500 to 2500 nM | Cc1nc2cc(-c3ccc4c(c3)CN(c3nc(NC(C)C)nc(C)c3Cc3ccc(F)cc3)CCO4)ccc2[nH]1 [Compound 19, 5-[(4-fluorophenyl)methyl]-4-methyl-6-[7-(2-methyl-1H-benzimidazol-5-yl)-2,3-dihydro-1,4-benzoxazepin-4(5H)-yl]-N-(1-methylethyl)pyrimidin-2-amine] |
| 500 to 2500 nM | 500 to 2500 nM | Cc1cc(N2CCOc3ccc(-c4ccc5[nH]cnc5c4)cc3C2)nc(N)n1 [Compound 43, 4-[7-(1H-benzimidazol-5-yl)-2,3-dihydro-1,4-benzoxazepin-4(5H)-yl]-6-methylpyrimidin-2-amine] |
| ≤ 100 nM |  | Cc1nc2cc(-c3ccc4c(c3)CN(c3nc(N)nc(C)c3C(C)C)CCO4)cnc2[nH]1 [Compound 50, 4-methyl-5-(1-methylethyl)-6-[7-(2-methyl-3H-imidazo[4,5-b]pyridin-6-yl)-2,3-dihydro-1,4-benzoxazepin-4(5H)-yl]pyrimidin-2-amine] |
| ≤ 100 nM |  | Cc1nc2ccc(-c3cc(F)c4c(c3)CN(c3nc(N)nc(C)c3C(C)C)CCO4)cc2[nH]1 [Compound 51, 4-[9-fluoro-7-(2-methyl-1H-benzimidazol-6-yl)-2,3-dihydro-1,4-benzoxazepin-4(5H)-yl]-6-methyl-5-(1-methylethyl)pyrimidin-2-amine] |
| ≤ 100 nM |  | Cc1nc(N)nc(N2CCOc3ccc(-c4cnc5[nH]cnc5c4)cc3C2)c1C(C)C [Compound 52, 4-[7-(3H-imidazo[4,5-b]pyridin-6-yl)-2,3-dihydro-1,4-benzoxazepin-4(5H)-yl]-6-methyl-5-(1-methylethyl)pyrimidine-2-amine] |
